{
  "source": "patent US5302399A",
  "about": "“Slow-releasing pharmaceuticals prepared with alginic acid” (Snow Brand Milk Products Co., Ltd., priority 1988, dated 1994)",
  "key": {"in vivo": {"test": "in vivo", "set-up": "species or system Male beagle dogs", "settings": "dog, po", "excerpt": "Water was given ad libitum.\nWater was given ad libitum during the test period.\nIn this test, alginic acid gel beads prepared using the low viscosity alginic acid gel beads (IL2, Kimizu Chemicals) were used."}, "clinical": {"test": "clinical", "set-up": "species or system healthy human adults", "settings": "in vivo, po"}},
  "data": [
    {"compound": "CC(C)NCC(O)COc1cccc2[nH]ccc12", "note": "(stereo not shown) [Pindolol powder, pindolol]", "values": [
      {"measurement": "AUC at 6 h", "setting": "in vivo; 2.5 mg/kg", "value": 238, "unit": "ng·h/mL"},
      {"measurement": "MRT at 6 h", "setting": "in vivo; 2.5 mg/kg", "value": 1.74, "unit": "h"},
      {"measurement": "AUC at 12 h", "setting": "in vivo; 5 mg/kg", "value": 311, "unit": "ng·h/mL"},
      {"measurement": "MRT at 12 h", "setting": "in vivo; 5 mg/kg", "value": 1.98, "unit": "h"},
      {"measurement": "MRT", "setting": "clinical; human", "value": "3.82 ± 0.32", "unit": "h"},
      {"measurement": "Tmax", "setting": "clinical; human", "value": "~1", "unit": "h"},
      {"measurement": "VRT", "setting": "clinical", "value": "7.44 ± 0.54", "unit": "h^2"}
    ]}
  ]
}
